# In US12435060B2, “Acylamino bridged heterocyclic compound, and composition and application thereof” (BEIJING SCITECH-MQ PHARMACEUTICALS LIMITED, priority 2019, dated 2025):
# Tested on: HT29 cells
# Experiment: Inhibition of cell necrosis (CCK8 method), induced programmed necrosis of HT29 cells
# Format: cell-based
# Conditions: Homo sapiens, HT-29; rescue from necrosis induced by TNF-α 20 ng/mL, AT-406 1 μM, Z-VAD-FMK 20 μM; 16-20 hours; CCK-8, OD 450 nm
# In short: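 Rescue from programmed necrosis was scored by CCK-8 absorbance at 450 nm after 16-20 h of TNF-α (20 ng/mL), AT-406 (1 μM) and Z-VAD-FMK (20 μM) at 37 °C, 5% CO2. HT29 cells had received compound 30 min earlier across nine 4-fold dilutions (top 25000 nM final). IC50 came from % inhibition relative to uninduced and induced-only wells.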
row,Structure (SMILES),IC50 [nM]
1,"O=C(Nc1cc(-c2cc(OCC3CCOCC3)ccc2C(F)(F)F)ccn1)c1nnc(Cc2ccccc2)[nH]1 [Example 299, 5-benzyl-N-(4-(5-((tetrahydro-2H-pyran-4-yl)methoxy)-2-(trifluoromethyl)phenyl)pyridin-2-yl)-4H-1,2,4-triazole-3-carboxamide]",≤ 100
2,"Cc1ccc(OCCCC(C)(C)O)cc1-c1cc(NC(=O)c2nnc(Cc3cc(F)cc(F)c3)[nH]2)ncn1 [Example 437, 5-(3,5-difluorobenzyl)-N-(6-(5-((4-hydroxy-4-methylpentyl)oxy)-2-methylphenyl)pyrimidin-4-yl)-4H-1,2,4-triazole-3-carboxamide]",100 to 1000
3,"O=C(Nc1cc(C2CCCC2)ccn1)c1nnc(Cc2ccccc2)[nH]1 [Example 47, 5-benzyl-N-(4-cyclopentylpyridin-2-yl)-4H-1,2,4-triazole-3-carboxamide]",> 10000
4,"COc1ccc(C)c(-c2ccnc(NC(=O)c3nnc(CC4CCCC4)[nH]3)c2)c1 [Example 102, 5-(cyclopentylmethyl)-N-(4-(5-methoxy-2-methylphenyl)pyridin-2-yl)-4H-1,2,4-triazole-3-carboxamide]",100 to 1000
5,"CCC(O)(CC)CCCOc1ccc(Cl)c(-c2cc(NC(=O)c3nnc(Cc4ccccc4F)[nH]3)ncc2F)c1 [Example 415, N-(4-(2-chloro-5-((4-ethyl-4-hydroxyhexyl)oxy)phenyl)-5-fluoropyridin-2-yl)-5-(2-fluorobenzyl)-4H-1,2,4-triazole-3-carboxamide]",≤ 100
6,"Cc1ccc(C2CCOCC2)cc1-c1ccnc(NC(=O)c2nnc(Cc3ccccc3)[nH]2)c1 [Example 479, 5-benzyl-N-(4-(2-methyl-5-(tetrahydro-2H-pyran-4-yl)phenyl)pyridin-2-yl)-4H-1,2,4-triazole-3-carboxamide]",100 to 1000
7,"CC(C)(O)CCCOc1ccc(Cl)c(-c2ccnc(NC(=O)c3nnc(Cc4ccc(F)c(C(F)(F)F)c4)[nH]3)c2)c1 [Example 349, N-(4-(2-chloro-5-((4-hydroxy-4-methylpentyl)oxy)phenyl)pyridin-2-yl)-5-(4-fluoro-3-(trifluoromethyl)benzyl)-4H-1,2,4-triazole-3-carboxamide]",> 10000
8,"COCCOc1ccc(C(F)(F)F)c(-c2ccnc(NC(=O)c3nnc(CC4CCCCC4)[nH]3)c2)c1 [Example 282, 5-(cyclohexylmethyl)-N-(4-(5-(2-methoxyethoxy)-2-(trifluoromethyl)phenyl)pyridin-2-yl)-4H-1,2,4-triazole-3-carboxamide]",≤ 100
9,"Cc1ccc(OCCCCC(C)(C)O)cc1-c1cc(NC(=O)c2nnc(CC3CCCCC3)[nH]2)ncc1F [Example 495, 5-(cyclohexylmethyl)-N-(5-fluoro-4-(5-((5-hydroxyl-5-methylhexyl)oxy)-2-methylphenyl)pyridin-2-yl)-4H-1,2,4-triazole-3-carboxamide]",≤ 100
10,"Cc1ccc(OCCCC(C)(C)O)cc1-c1cc(NC(=O)c2nnc(Cc3cc(F)ccc3F)[nH]2)ncn1 [Example 436, 5-(2,5-difluorobenzyl)-N-(6-(5-((4-hydroxy-4-methylpentyl)oxy)-2-methylphenyl)pyrimidin-4-yl)-4H-1,2,4-triazole-3-carboxamide]",≤ 100
11,"CCC(O)(CC)CCCOc1ccc(Cl)c(-c2ccnc(NC(=O)c3nnc(CC4CCCCC4)[nH]3)c2)c1 [Example 362, N-(4-(2-chloro-5-((4-ethyl-4-hydroxyhexyl)oxy)phenyl)pyridin-2-yl)-5-(cyclohexylmethyl)-4H-1,2,4-triazole-3-carboxamide]",≤ 100
12,"CCOc1nc(-c2ccnc(NC(=O)c3nnc(Cc4ccccc4)[nH]3)c2)ccc1C [Example 53, 5-benzyl-N-(6-ethoxy-5-methyl-[2,4′-bipyridin]-2′-yl)-4H-1,2,4-triazole-3-carboxamide]",> 10000
13,"CC(C)(C)OCCOc1ccc(Cl)c(-c2ccnc(NC(=O)c3nnc(Cc4ccccc4)[nH]3)c2)c1 [Example 391, 5-benzyl-N-(4-(5-(2-(tert-butoxy)ethoxy)-2-chlorophenyl)pyridin-2-yl)-4H-1,2,4-triazole-3-carboxamide]",≤ 100
14,"Cc1cnc(NC(=O)c2nnc(CC3CCCCC3)[nH]2)cc1-c1cc(OCC2CCOCC2)ccc1Cl [Example 427, N-(4-(2-chloro-5-((tetrahydro-2H-pyran-4-yl)methoxy)phenyl)-5-methylpyridin-2-yl)-5-(cyclohexylmethyl)-4H-1,2,4-triazole-3-carboxamide]",100 to 1000
15,"CC(C)(C)OCCOc1ccc(C(F)(F)F)c(-c2ccnc(NC(=O)c3nnc(CC4CCCC4)[nH]3)c2)c1 [Example 293, 5-(cyclopentylmethyl)-N-(4-(5-(2-(tert-butoxy)ethoxy)-2-(trifluoromethyl)phenyl)pyridin-2-yl)-4H-1,2,4-triazole-3-carboxamide]",≤ 100
16,"Cc1ccc(C(C)(C)O)cc1-c1ccnc(NC(=O)c2nnc(Cc3ccccc3)[nH]2)c1 [Example 199, 5-benzyl-N-(4-(5-(2-hydroxypropan-2-yl)-2-methylphenyl)pyridin-2-yl)-4H-1,2,4-triazole-3-carboxamide]",1000 to 10000

row,Structure (SMILES),IC50 [nM]
1,"COCCOc1ccc(Cl)c(-c2ccnc(NC(=O)c3nnc(CC4CCCC4)[nH]3)c2)c1 [Example 381, N-(4-(2-chloro-5-(2-methoxyethoxy)phenyl)pyridin-2-yl)-5-(cyclopentylmethyl)-4H-1,2,4-triazole-3-carboxamide]",≤ 100
2,"Cc1cc(F)c(OCCCC(C)(C)O)cc1-c1ccnc(NC(=O)c2nnc(Cc3ccccc3)[nH]2)c1 [Example 237, 5-benzyl-N-(4-(4-fluoro-5-((4-hydroxy-4-methylpentyl)oxy)-2-methylphenyl)pyridin-2-yl)-4H-1,2,4-triazole-3-carboxamide]",≤ 100
3,"O=C(Nc1cc(-c2cc(OCCC3CCOCC3)ccc2Cl)ccn1)c1nnc(Cc2ccccc2F)[nH]1 [Example 404, N-(4-(2-chloro-5-(2-(tetrahydro-2H-pyran-4-yl)ethoxy)phenyl)pyridin-2-yl)-5-(2-fluorobenzyl)-4H-1,2,4-triazole-3-carboxamide]",≤ 100
4,"Cc1ccc(OCC2CCOCC2)cc1-c1cc(NC(=O)c2nnc(Cc3ccccc3F)[nH]2)ncc1Cl [Example 249, N-(5-chloro-4-(2-methyl-5-((tetrahydro-2H-pyran-4-yl)methoxy)phenyl)pyridin-2-yl)-5-(2-fluorobenzyl)-4H-1,2,4-triazole-3-carboxamide]",100 to 1000
5,"CC(C)Oc1ncccc1-c1ccnc(NC(=O)c2nnc(Cc3ccccc3)[nH]2)c1 [Example 23, 5-benzyl-N-(2-isopropyloxy-[3,4′-bipyridin]-2′-yl)-4H-1,2,4-triazole-3-carboxamide]",> 10000
6,"COc1ccc(F)cc1-c1ccnc(NC(=O)c2nnc(Cc3ccccc3)[nH]2)c1 [Example 14, 5-benzyl-N-(4-(5-fluoro-2-methoxyphenyl)pyridin-2-yl)-4H-1,2,4-triazole-3-carboxamide]",1000 to 10000
7,"Cc1ccc(OCC2CCOCC2)cc1-c1cc(NC(=O)c2nnc(CC3CCCC3)[nH]2)ncn1 [Example 443, 5-(cyclopentylmethyl)-N-(6-(2-methyl-5-((tetrahydro-2H-pyran-4-yl)methoxy)phenyl)pyrimidin-4-yl)-4H-1,2,4-triazole-3-carboxamide]",≤ 100
8,"CCOCCOc1ccc(Cl)c(-c2ccnc(NC(=O)c3nnc(Cc4ccccc4F)[nH]3)c2)c1 [Example 384, 5-(2-fluorobenzyl)-N-(4-(2-chloro-5-(2-ethoxyethoxy)phenyl)pyridin-2-yl)-4H-1,2,4-triazole-3-carboxamide]",≤ 100
9,"CC(C)(O)CCCOc1ccc(Cl)c(-c2ccnc(NC(=O)c3nnc(Cc4cccc(C(F)(F)F)c4F)[nH]3)c2)c1 [Example 346, N-(4-(2-chloro-5-((4-hydroxy-4-methylpentyl)oxy)phenyl)pyridin-2-yl)-5-(2-fluoro-3-(trifluoromethyl)benzyl)-4H-1,2,4-triazole-3-carboxamide]",100 to 1000
10,"Cc1ccc(OCCCC(F)(F)F)cc1-c1ccnc(NC(=O)c2nnc(Cc3ccccc3)[nH]2)c1 [Example 138, 5-benzyl-N-(4-(2-methyl-5-(4,4,4-trifluorobutoxy)phenyl)pyridin-2-yl)-4H-1,2,4-triazole-3-carboxamide]",≤ 100
11,"Cc1cc(-c2ccnc(NC(=O)c3nnc(Cc4ccccc4)[nH]3)c2)n(C)n1 [Example 27, 5-benzyl-N-(4-(1,3-dimethyl-1H-pyrazol-5-yl)pyridin-2-yl)-4H-1,2,4-triazole-3-carboxamide]",1000 to 10000
12,"Cc1ccc(OC2CC2)cc1-c1ccnc(NC(=O)c2nnc(Cc3ccccc3)[nH]2)c1 [Example 155, 5-benzyl-N-(4-(5-cyclopropoxy-2-methylphenyl)pyridin-2-yl)-4H-1,2,4-triazole-3-carboxamide]",100 to 1000
13,"CCC(O)(CC)CCCOc1ccc(C(F)(F)F)c(-c2ccnc(NC(=O)c3nnc(CC4CCCC4)[nH]3)c2)c1 [Example 262, 5-(cyclopentylmethyl)-N-(4-(5-((4-ethyl-4-hydroxyhexyl)oxy)-2-(trifluoromethyl)phenyl)pyridin-2-yl)-4H-1,2,4-triazole-3-carboxamide]",≤ 100
14,"O=C(Nc1cc(-c2cc(OCCCCCO)ccc2Cl)ccn1)c1nnc(CC2CCCC2)[nH]1 [Example 377, N-(4-(2-chloro-5-((5-hydroxypentyl)oxy)phenyl)pyridin-2-yl)-5-(cyclopentylmethyl)-4H-1,2,4-triazole-3-carboxamide]",≤ 100
15,"Cc1ccc(OCCCC(C)(C)O)cc1-c1ccnc(NC(=O)c2nnc(Cc3ccc(F)c(F)c3F)[nH]2)c1 [Example 214, 5-(2,3,4-trifluorobenzyl)-N-(4-(5-((4-hydroxy-4-methylpentyl)oxy)-2-methylphenyl)pyridin-2-yl)-4H-1,2,4-triazole-3-carboxamide]",≤ 100
